Test results from patent publication US20100029657A1, “Bridged, Bicyclic Heterocyclic or Spiro Bicyclic Heterocyclic Derivatives of Pyrazolo[1, 5-A]Pyrimidines, Methods for Preparation and Uses Thereof” (Wyeth, priority 2008, published 2010).

target: T1, Flag/GST-tagged recombinant human B-Raf (Homo sapiens, UniProt P15056); experiment: B-Raf kinase assay (phosphorylation of GST-MEK1, phospho-MEK1 antibody/Europium detection); assay type: biochemical; settings: B-Raf IC50 Data for compounds of Formula A; read-out: Mean IC50
T1 construct: Flag; GST; made in house; host or cells: Sf9 insect cells (B-Raf); E. coli (MEK1-GST)
Procedure: B-Raf1 Kinase Assay Procedure: B-Raf-1 is used to phosphorylate GST-MEK1.
• 1. Assay Dilution Buffer (ADB): 20 mM MOPS, pH 7.2, 25 mM β-glycerol phosphate, 5 mM EGTA, 1 mM sodium orthovanadate, 1 mM dithiothreitol, 0.01% Triton X-100. • 2. Magnesium/ATP Cocktail: ADB solution (minus Triton X-100) plus 200 μM cold ATP and 40 mM magnesium chloride. • 4. Active Kinase: Active B-Raf: Used at 0.2 nM per assay point. • 5. […] TBST—Tris (50 mM, pH 7.5), NaCl (150 mM), Tween-20 (0.05%) • 7. Anti-GST Ab (GE) • 8. Anti pMEK Ab (Upstate) • 9. Anti-rabbit Ab/Europium conjugate (Wallac).
B-Raf Assay Procedure: • 1. Added 25 μL of ADB containing B-Raf and Mek per assay (i.e. per well of a 96 well plate) • 2. Added 25 μL of 0.2 mM ATP and 40 mM magnesium chloride in Magnesuium/ATP Cocktail. • 3. Incubated for 45 minutes at RT with occasional shaking. • 4. Transferred this mixture to an anti-GST Ab coated 96 well plate (Nunc Immunosorb plates coated o/n with a-GST. Plate freshly washed 3×with TBS-T before use. • 5. Incubated o/n at […] in cold room. • 6. Washed 3× with TBST, ed Anti-Phospho MEK1 (1:1000, dilution depended upon lot) • 7. Incubated for 60 minutes at RT in a shaking incubator • 8. Washed 3× with TBST, add Anti-rabbit Ab/Europium conjugate (Wallac) (1:500, dilution depended upon lot) • 9. Incubated for 60 minutes at RT on a platform shaker. • 10. Washed plate 3× with TBS-T • 11. Added 100 μL of Wallac Delfia Enhancement Solution and agitated for 10 minutes. • 12. Read plates in Wallac Victor model Plate Reader. • 13.
The % inhibition was determined for each compound concentration.

T1 sequence (P15056 whole entry): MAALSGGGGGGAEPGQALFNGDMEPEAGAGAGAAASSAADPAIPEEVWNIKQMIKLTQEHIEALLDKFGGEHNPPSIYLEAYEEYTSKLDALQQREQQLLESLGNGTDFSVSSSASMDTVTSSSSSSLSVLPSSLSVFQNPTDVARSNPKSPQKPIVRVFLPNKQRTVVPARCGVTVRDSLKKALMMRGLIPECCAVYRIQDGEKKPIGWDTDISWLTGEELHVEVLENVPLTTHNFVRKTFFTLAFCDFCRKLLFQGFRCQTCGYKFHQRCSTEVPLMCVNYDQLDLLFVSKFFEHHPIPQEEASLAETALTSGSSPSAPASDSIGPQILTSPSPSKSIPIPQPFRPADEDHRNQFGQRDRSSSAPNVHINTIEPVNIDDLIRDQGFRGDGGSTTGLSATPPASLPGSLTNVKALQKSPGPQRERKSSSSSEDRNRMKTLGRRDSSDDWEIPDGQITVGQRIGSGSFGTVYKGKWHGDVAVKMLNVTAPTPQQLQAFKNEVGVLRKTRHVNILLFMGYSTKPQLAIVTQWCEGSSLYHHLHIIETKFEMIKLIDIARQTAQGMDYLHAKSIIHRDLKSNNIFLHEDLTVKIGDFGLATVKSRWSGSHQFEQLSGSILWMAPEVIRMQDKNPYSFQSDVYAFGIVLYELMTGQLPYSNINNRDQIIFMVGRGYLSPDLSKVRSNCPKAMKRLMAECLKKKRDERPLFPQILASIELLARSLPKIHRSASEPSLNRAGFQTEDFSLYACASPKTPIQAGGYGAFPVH

Question: How did the IC50 turn out when Fc1cc(N2C[C@@H]3C[C@H]2CN3)cc(F)c1-c1ccnc2c(-c3cccc4[nH]ncc34)c(-c3ccncc3)nn12 [Example 100, 7-(4-((1S,4S)-2,5-diazabicyclo[2.2.1]heptan-2-yl)-2,6-difluorophenyl)-3-(1H-indazol-4-yl)-2-(pyridin-4-yl)pyrazolo[1,5-a]pyrimidine] was run?
Answer: < 0.0002 µM

Question: With Fc1cc(-c2ccnc3c(-c4cccc5[nH]ncc45)c(-c4ccncc4)nn23)cc(F)c1N1C[C@@H]2C[C@H]1CN2 [Example 161, 7-{4-[(1S,4S)-2,5-diazabicyclo[2.2.1]hept-2-yl]-3,5-difluorophenyl}-3-(1H-indazol-4-yl)-2-pyridin-4-ylpyrazolo[1,5-a]pyrimidine] as the molecule, how does the IC50 read?
Answer: 0.0027 µM

Question: Which IC50 does the source give for CN1C[C@@H]2C[C@H]1CN2c1ccc(-c2ccnc3c(-c4cccc5[nH]ncc45)c(-c4ccncc4)nn23)c(F)c1 [Example 53, 7-(2-Fluoro-4-((1S,4S)-5-methyl-2,5-diazabicyclo[2.2.1]heptan-2-yl)phenyl)-3-(1H-indazol-4-yl)-2-(pyridin-4-yl)pyrazolo[1,5-a]pyrimidine] here?
Answer: < 0.0003 µM

Question: With c1cc(-c2ccnc3c(-c4cccc5[nH]ncc45)c(-c4ccncc4)nn23)cc(N2C[C@@H]3C[C@H]2CN3)c1 [Example 124, 7-{3-[(1S,4S)-2,5-diazabicyclo[2.2.1]hept-2-yl]phenyl}-3-(1H-indazol-4-yl)-2-pyridin-4-ylpyrazolo[1,5-a]pyrimidine] as the molecule, how does the IC50 read?
Answer: 0.0376 µM

Question: CN1C[C@@H]2C[C@H]1CN2c1ccc(-c2ccnc3c(-c4cccc5[nH]ncc45)c(-c4ccncc4)nn23)cc1F [Example 188, 7-{3-fluoro-4-[(1S,4S)-5-methyl-2,5-diazabicyclo[2.2.1]hept-2-yl]phenyl}-3-(1H-indazol-4-yl)-2-pyridin-4-ylpyrazolo[1,5-a]pyrimidine] was tested. Which IC50 did it give?
Answer: 0.0019 µM

Question: For CN1C[C@@H]2C[C@H]1CN2c1ccc(-c2ccnc3c(-c4cccc5[nH]ncc45)c(-c4ccncc4)nn23)cc1 [Example 35, 3-(1H-indazol-4-yl)-7-(4-((1S,4S)-5-methyl-2,5-diazabicyclo[2.2.1]heptan-2-yl)phenyl)-2-(pyridin-4-yl)pyrazolo[1,5-a]pyrimidine], which IC50 is on record?
Answer: 0.0015 µM

Question: c1cc(-c2c(-c3ccncc3)nn3c2nccc3[C@H]2CC[C@@H](N3CC4CCC(C3)O4)CC2)c2cn[nH]c2c1 (relative stereo) [Example 152, 3-(1H-indazol-4-yl)-7-[cis-4-(8-oxa-3-azabicyclo[3.2.1]oct-3-yl)cyclohexyl]-2-pyridin-4-ylpyrazolo[1,5-a]pyrimidine] was tested. Which IC50 did it give?
Answer: 0.0064 µM

Question: With COc1cc(-c2c(-c3ccncc3)nn3c(C4CC5CCC(C4)N5)ccnc23)ccc1Cl (stereo not shown) [Example 16, 7-(8-Azabicyclo[3.2.1]oct-3-yl)-3-(4-chloro-3-methoxyphenyl)-2-pyridin-4-ylpyrazolo[1,5-a]pyrimidine] as the molecule, how does the IC50 read?
Answer: 0.009 µM

Question: Which IC50 does the source give for CCOC(=O)N1C2CCC1CC(c1ccn3nc(-c4ccncc4)c(-c4ccc(F)c5[nH]ncc45)c3n1)C2 (stereo not shown) [Example 131, ethyl 3-[3-(7-fluoro-1H-indazol-4-yl)-2-pyridin-4-ylpyrazolo[1,5-a]pyrimidin-5-yl]-8-azabicyclo[3.2.1]octane-8-carboxylate] here?
Answer: 0.001 µM

Question: Which IC50 does the source give for Fc1ccc(-c2c(-c3ccncc3)nn3c2nccc3[C@H]2CC[C@@H](N3C[C@@H]4C[C@H]3CO4)CC2)c2cn[nH]c12 [Example 177, 3-(7-fluoro-1H-indazol-4-yl)-7-{cis-4-[(1S,4S)-2-oxa-5-azabicyclo[2.2.1]hept-5-yl]cyclohexyl}-2-pyridin-4-ylpyrazolo[1,5-a]pyrimidine] here?
Answer: 0.004 µM

Question: Which IC50 does the source give for c1cc(-c2c(-c3ccncc3)nn3c(-c4coc(CN5C[C@@H]6C[C@H]5CO6)c4)ccnc23)c2cn[nH]c2c1 [Example 193, 3-(1H-indazol-4-yl)-7-{5-[(1S,4S)-2-oxa-5-azabicyclo[2.2.1]hept-5-ylmethyl]furan-3-yl}-2-pyridin-4-ylpyrazolo[1,5-a]pyrimidine] here?
Answer: 0.0188 µM

Question: Which IC50 does the source give for Oc1cccc(-c2c(-c3ccncc3)nn3c(C4CC5CCC(C4)N5)ccnc23)c1 (stereo not shown) [Example 9, 3-(7-(8-Azabicyclo[3.2.1]octan-3-yl)-2-(pyridin-4-yl)pyrazolo[1,5-a]pyrimidin-3-yl)phenol] here?
Answer: 0.004 µM

Question: Which IC50 does the source give for CN1C[C@@H]2C[C@H]1CN2c1ccc(-c2ccnc3c(-c4cccc5[nH]ncc45)c(-c4ccncc4)nn23)c(Cl)c1 [Example 62, 7-(2-Chloro-4-((1S,4S)-5-methyl-2,5-diazabicyclo[2.2.1]heptan-2-yl)phenyl)-3-(1H-indazol-4-yl)-2-(pyridin-4-yl)pyrazolo[1,5-a]pyrimidine] here?
Answer: < 0.0003 µM

Question: For c1cc(-c2c(-c3ccncc3)nn3c(-c4ccc(CN5C[C@@H]6C[C@H]5CO6)cc4)ccnc23)c2cn[nH]c2c1 [Example 204, 3-(1H-indazol-4-yl)-7-{4-[(1S,4S)-2-oxa-5-azabicyclo[2.2.1]hept-5-ylmethyl]phenyl}-2-pyridin-4-ylpyrazolo[1,5-a]pyrimidine], which IC50 is on record?
Answer: 0.01 µM

Question: CCN1C2CCC1CC(c1ccnc3c(-c4ccc(C#N)c(O)c4)c(-c4ccncc4)nn13)C2 (stereo not shown) [Example 68, 4-(7-(8-Ethyl-8-azabicyclo[3.2.1]octan-3-yl)-2-(pyridin-4-yl)pyrazolo[1,5-a]pyrimidin-3-yl)-2-hydroxybenzonitrile] was tested. Which IC50 did it give?
Answer: 0.058 µM

Question: With c1cc(-c2c(-c3ccncc3)nn3c2nccc3[C@H]2CC[C@H](N3C[C@@H]4C[C@H]3CO4)CC2)c2cn[nH]c2c1 [Example 155, 3-(1H-indazol-4-yl)-7-{trans-4-[(1S,4S)-2-oxa-5-azabicyclo[2.2.1]hept-5-yl]cyclohexyl}-2-pyridin-4-ylpyrazolo[1,5-a]pyrimidine] as the molecule, how does the IC50 read?
Answer: 0.0035 µM

Question: For CCN1C2CCC1CC(c1ccnc3c(-c4ccc(N)cc4)c(-c4ccncc4)nn13)C2 (stereo not shown) [Example 22, 4-(7-(8-Ethyl-8-azabicyclo[3.2.1]octan-3-yl)-2-(pyridin-4-yl)pyrazolo[1,5-a]pyrimidin-3-yl)aniline], which IC50 is on record?
Answer: > 1 µM

Question: Which IC50 does the source give for CN(C)c1cc(N2C[C@@H]3C[C@H]2CN3)ccc1-c1ccnc2c(-c3cccc4[nH]ncc34)c(-c3ccncc3)nn12 [Example 146, 5-[(1S,4S)-2,5-diazabicyclo[2.2.1]hept-2-yl]-2-[3-(1H-indazol-4-yl)-2-pyridin-4-ylpyrazolo[1,5-a]pyrimidin-7-yl]-N,N-dimethylaniline] here?
Answer: 0.0063 µM

Question: CCN1C2CCC1CC(c1ccnc3c(-c4ccc(F)c(O)c4)c(-c4ccncc4)nn13)C2 (stereo not shown) [Example 64, 5-(7-(8-Ethyl-8-azabicyclo[3.2.1]octan-3-yl)-2-(pyridin-4-yl)pyrazolo[1,5-a]pyrimidin-3-yl)-2-fluorophenol] was tested. Which IC50 did it give?
Answer: 0.003 µM

Question: How did the IC50 turn out when COc1cc(-c2c(-c3ccncc3)nn3c(CN4C[C@@H]5C[C@H]4CN5C(=O)OC(C)(C)C)ccnc23)ccc1Cl [Example 121, tert-butyl (1S,4S)-5-{[3-(4-chloro-3-methoxyphenyl)-2-pyridin-4-ylpyrazolo[1,5-a]pyrimidin-7-yl]methyl}-2,5-diazabicyclo[2.2.1]heptane-2-carboxylate] was run?
Answer: > 0.1 µM

Question: Which IC50 does the source give for CN1C[C@@H]2C[C@H]1CN2c1ccc(-c2ccnc3c(-c4ccc(Cl)c5[nH]ncc45)c(-c4ccncc4)nn23)cc1 [Example 141, 3-(7-chloro-1H-indazol-4-yl)-7-{4-[(1S,4S)-5-methyl-2,5-diazabicyclo[2.2.1]hept-2-yl]phenyl}-2-pyridin-4-ylpyrazolo[1,5-a]pyrimidine] here?
Answer: 0.0023 µM

Question: For c1cc(-c2c(-c3ccncc3)nn3c(-c4ccc(N5C[C@@H]6C[C@H]5CO6)nc4)ccnc23)c2cn[nH]c2c1 [Example 201, 3-(1H-indazol-4-yl)-7-{6-[(1S,4S)-2-oxa-5-azabicyclo[2.2.1]hept-5-yl]pyridin-3-yl}-2-pyridin-4-ylpyrazolo[1,5-a]pyrimidine], which IC50 is on record?
Answer: 0.0084 µM

Question: With Fc1cc(N2C[C@@H]3C[C@H]2CN3)c(F)cc1-c1ccnc2c(-c3cccc4[nH]ncc34)c(-c3ccncc3)nn12 [Example 163, 7-{4-[(1S,4S)-2,5-diazabicyclo[2.2.1]hept-2-yl]-2,5-difluorophenyl}-3-(1H-indazol-4-yl)-2-pyridin-4-ylpyrazolo[1,5-a]pyrimidine] as the molecule, how does the IC50 read?
Answer: < 0.0003 µM

Question: For CN1C[C@@H]2C[C@H]1CN2c1ccc(-c2ccnc3c(-c4cccc5[nH]ncc45)c(-c4ccncc4)nn23)c(C(F)(F)F)c1 [Example 189, 3-(1H-indazol-4-yl)-7-{4-[(1S,4S)-5-methyl-2,5-diazabicyclo[2.2.1]hept-2-yl]-2-(trifluoromethyl)phenyl}-2-pyridin-4-ylpyrazolo[1,5-a]pyrimidine], which IC50 is on record?
Answer: 0.0014 µM

same assay, conditions: Mean IC50 (uM), B-Raf IC50 Data for compounds of Formula A

Question: With CN1C2CCC1CN(c1ccc(-c3ccnc4c(-c5ccc(Cl)c(O)c5)c(-c5ccncc5)nn34)cc1)C2 [Example 27, 2-Chloro-5-{7-[4-(8-methyl-3,8-diaza-bicyclo[3.2.1]oct-3-yl)-phenyl]-2-pyridin-4-yl-pyrazolo[1,5-a]pyrimidin-3-yl}-phenol] as the molecule, how does the IC50 read?
Answer: < 0.0003 µM
